Measured values published in patent US20200237909A1, “METHODS OF TREATING OR PREVENTING BREAST CANCER METASTASES USING ANTIBODIES TO JAGGED1 AND CHEMOTHERAPEUTIC AGENTS” (The Trustees of Princeton University, priority 2017, published 2020).

Experiments:
MSCs = test: Stress inducers/inhibitors: Jagged1 expression and ROS production in MSCs; format: cell-based, mouse
Text: Next, which signaling pathway is responsible for Jagged1 induction after chemotherapy in osteoblast lineage cells was investigated. Chemotherapy generates many stress responses in cells, including endoplasmic reticulum stress (ER stress), and oxidative stress. Some of the stress conditions have been associated with the regulation of Jagged1 expression (Paul et al., 2014). Several treatments were used to mimic or inhibit these stress responses and then Jagged1 mRNA and protein levels were analyzed within the cells.
293T, H29-Clone #7, MC3T3-E1 Clone #4(denoted as MC3T3 for abbreviation thereafter), MCF7TR, mouse mesenchymal stromal cell (MSC, isolated from BALB/c), 4T1.2, SCP28, SCP28-Vector and -Jagged1 cells, SCP28, RAW264.7, and SUM1315-M1B1 cells were cultured according to American Type Culture Collection instructions and the inventors' previous studies (Ell et al., 2013; Ren et al., 2008; Sethi et al., 2011; Zheng et al., 2014). MSC cells were derived previously and were cultured in DMEM supplemented with 10% FBS, 30 ng/ml bFGF, 100 U/ml penicillin, and 100 μg/ml streptomycin (Ren et al., 2008). All plasmids were transfected into different cell lines using Lipofectamine 2000 following the manufacturer's manual (Life Technologies, CA, USA). To generate stable cell lines, a pLEX-MCS based lentivirus vector or a pMSCV-hygro based retrovirus vector was used in our study. Lentiviruses were packaged in HEK293T cells while retroviruses were packaged by using H29 cell line. Conditional media from these packaging cells containing viruses were collected 2 days and 3 days after transfection. Recipient cell lines were exposed to conditional media containing viruses supplemented with 2 μg/mL Polybrene for 48 h. Infected cells were selected with puromycin or hygromycin to generate stable expressing cell lines. 293T and H29clone #7 are cell lines from female humans. All other cancer cell lines are breast cancer cell lines from either female human or mouse.

[1] = test system: Notch downstream genes (human HES2, HEY1, HEY2); test: Notch downstream gene expression in tumor cells co-cultured with MSC after chemotherapy; format: cell-based; details: co-culture tumor cells after chemotherapy
SUM1315-M1B1 cells = test: SUM1315-M1B1 bone metastasis model; format: in vivo, athymic nude mice; details: Week 4
Text: FIG. 9. 15D11 synergizes with chemotherapy to inhibit bone metastasis in the SUM1315-M1B1 model. (A) Western blot analysis of Jagged1 protein expression level in SUM1315-M1B1, SPC2, SCP28-Vector, and SCP28-Jagged1 cells. β-actin was used as loading control. (B) Schematic representation of the experimental procedure. In brief, SUM1315-M1B1 cells were IC injected into 4-6 weeks female athymic nude mice to generate bone metastases. One week later, mice were randomized into four groups and treated with respective therapeutic agents. Bone metastasis progression was monitored by weekly BLI imaging until the experimental endpoint (4 weeks after injection). (C) Representative BLI and X-ray images of mice in Week 4 right before euthanizing the mice. (D) Quantification of bone metastasis burden each week based on BLI imaging from the experiment. […] (E) Representative H&E staining and TRAP staining images of hind limb bones from experiment in A were shown. Scale bar: 100 μm. […] AU: arbitrary unit. n=10, **p<0.01 by Student's t-test. (G) Quantification of the number of TRAP-positive osteoclasts per field. n=5, **p<0.01 by Student's t-test.
To validate whether the observed synergy of combined treatment can also be observed in other models of bone metastasis beyond the MDA-MB-231 series, the bone metastatic SUM1315-M1B1 cell line was used. […]

| SMILES | ROS production in MSCs (MSCs) | Notch downstream genes HES2, HEY1, HEY2 [1] | bone metastasis burden (BLI signal) (SUM1315-M1B1 cells) |
| --- | --- | --- | --- |
| N.N.[Cl][Pt][Cl] [cisplatin] | induced ROS production | significantly upregulated | – |
| CC(=O)O[C@H]1C(=O)[C@@]2(C)[C@H]([C@H](OC(=O)c3ccccc3)[C@]3(O)C[C@H](OC(=O)[C@H](O)[C@@H](NC(=O)c4ccccc4)c4ccccc4)C(C)=C1C3(C)C)[C@]1(OC(C)=O)CO[C@@H]1C[C@@H]2O [paclitaxel] | – | – | minor reduction of BLI signal |
